Data reported in patent US9073879B2, “Oxazole derivatives useful as modulators of FAAH” (MERCK SHARP & DOHME CORP., priority 2010, dated 2015).

Experiments:
human FAAH [1] = biological target: T1, human FAAH (Homo sapiens, UniProt O00519); test: FAAH whole cell assay (human Whole cell, FAAH_CHO, AAMCA substrate); format: cell-based; details: CHO cells expressing human FAAH, whole cell format; read-out: human cell_IC50
T1 construct: The full length FAAH was subcloned into the mammalian expression vector, pcDEF.neo, using XbaI and EcoRI restriction sites; expressed in transfected cells
T1 sequence (O00519 1-579): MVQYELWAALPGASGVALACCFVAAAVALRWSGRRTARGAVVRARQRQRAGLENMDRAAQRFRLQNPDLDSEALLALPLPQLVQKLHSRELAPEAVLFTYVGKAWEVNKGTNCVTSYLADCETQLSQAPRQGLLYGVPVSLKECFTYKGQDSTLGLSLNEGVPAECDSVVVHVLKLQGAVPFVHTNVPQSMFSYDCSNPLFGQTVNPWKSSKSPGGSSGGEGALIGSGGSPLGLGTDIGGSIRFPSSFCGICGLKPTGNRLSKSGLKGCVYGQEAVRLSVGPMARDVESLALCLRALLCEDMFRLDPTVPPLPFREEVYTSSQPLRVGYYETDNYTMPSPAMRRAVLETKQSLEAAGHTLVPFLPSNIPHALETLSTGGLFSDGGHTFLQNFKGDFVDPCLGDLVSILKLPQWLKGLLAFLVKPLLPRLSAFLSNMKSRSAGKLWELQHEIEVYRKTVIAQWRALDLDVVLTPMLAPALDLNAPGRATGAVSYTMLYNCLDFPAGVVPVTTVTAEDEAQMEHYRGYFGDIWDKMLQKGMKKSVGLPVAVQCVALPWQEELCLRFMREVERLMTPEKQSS
Description: (§1) To assist in assay development stable cell lines for human, murine and rat full length FAAH were developed. Human FAAH cDNA (Accession No: NM_001441.1) was purchased from Origene (Rockville, Md.). The full length FAAH was subcloned into the mammalian expression vector, pcDEF.neo, using XbaI and EcoRI restriction sites and used for stable cell line generation.
Murine (accession number NM_010173) and Rat FAAH (accession number NM_024132) was amplified by reverse transcriptase polymerase chain reaction (RT-PCR) from brain cDNA (BD Biosciences, San Jose, Calif.) using primers 1 and 2 or primers 1 and 3 respectively (see Table). The resulting PCR product was ligated into pCR4 TOPO and DNA sequence confirmed. The full length murine FAAH was subcloned into the mammalian expression vector, pcDEFneo using either EcoRI (murine) or KpnI and EcoRI (rat) restriction sites. Chinese hamster ovary cells (CHO) were transfected following manufacturers protocol (AMAXA). Forty eight hours post transfection, cells were trypsinized and transferred to 96 well plates in Iscove's DMEM media supplemented with 2 mM Glutamine, 10% fetal calf serum, 1 mg/ml geneticin and HT Supplement (0.1 mM sodium hypoxanthine, 0.016 mM thymidine) in order to isolate single clones. Following selection in geneticin, individual clones were selected and FAAH activity was assessed using a whole cell fluorescent anandamide assay, modified from Ramarao et al (2005). Following removal of tissue culture media cells were dislodged following addition of Cellstripper (Mediatech, Inc. Manassas, Va.) and transferred to 96 well black clear bottom assay plate, centrifuged at 1,000 rpm for 3 mins and media removed and replaced with assay buffer (50 mM Tris pH8.0, 1 mM EDTA, 0.1% fatty acid free BSA). The reaction was initiated by addition of fluorescent substrate, AMC Arachidonoyl Amide (Cayman Chemical, Ann Arbor, Mich.) to 1 μM and reaction allowed to proceed for 2 hours at room temperature. Release of fluorescence was monitored in a CytoFluor Multiplate Reader. Cells expressing the highest amount of FAAH activity were selected for study with FAAH inhibitors.
(§2) Assays are performed on either cell lysate or microsome fractions prepared as described or in whole cell format employing either the fluorescent substrate AAMCA (Cayman chemical, Ann Arbor, Mich.) or ^3H-anandamide ([ETHANOLAMINE-1-3H] American Radiolabeled Chemicals; 1 mCi/ml). The cell lysate or microsome assay is performed in black PerkinElmer OptiPlates-384F by adding FAAH_CHO (whole cell (shown as human Whole cell or Human WC), cell lysate (shown as human lysate of human LY) or microsome) in assay buffer (50 mM Phosphate, pH 8.0, 1 mM EDTA, 200 mM KCl, 0.2% glycerol, 0.1% fatty acid free BSA) to each well, followed by either DMSO or compound and allowed to incubate at 22-25° C. for fifteen minutes. AAMCA substrate was used to achieve a final concentration of 1 μM and reaction allowed to proceed at room temperature for 1-3 hours. Fluorescent release as a measure of FAAH activity was monitored by reading the plate in an Envision plate Reader (Ex: 360/40 nM; Em: 460/40 nM). Whole cell assay is conducted with cells harvested after rinsing tissue culture flasks three times with Ca^++Mg^++ free PBS, incubating for 10 min in Enzyme free dissociation media and centrifuging for 5 minutes at 1,000 rpm in table top centrifuge. Cells are resuspended in assay buffer at desired cell number in (4×10^4 cells/assay in 96-well format; 1×10^4 cells/assay in 384-well format) and assayed as described.

human FAAH [2] = biological target: T1, human FAAH; test: FAAH cell lysate assay (human lysate, FAAH_CHO, AAMCA substrate); format: biochemical; details: lysate of CHO cells expressing human FAAH; read-out: human lysate_IC50
Description: as §1
CHO cells expressing FAAH were used to prepare either crude cell lysate or microsome fractions. To harvest cells, tissue culture media was decanted, the monolayer washed three times with Ca^++Mg^++ free PBS and cells recovered after 15 mm in enzyme free dissociation media (Millipore Corp, Billerica, Mass.). Cells were collected by centrifuging at 2000 rpm for 15 min. and the cell pellet re-suspended with 50 mM HEPES (pH 7.4) containing 1 mM EDTA and the protease inhibitors aprotinin (1 mg/ml) and leupeptin (100 μM). The suspension was sonicated at 4° C. and the cell lysate recovered after centrifuging at 12,000×g (14,600 rpm, SS34 rotor) for 20 min at 4° C. to form a crude pellet of cell debris, nuclei, peroxisomes, lysosomes, and mitochondria; the supernatant or cell lysate was used for FAAH enzyme assay. In some cases, microsomes fractions enriched in FAAH were prepared by centrifuging the cell lysate further at 27,000 rpm (100,000×g) in SW28 rotor for 50 minutes at 4° C. The pellet containing FAAH-enriched microsomes was re-suspend in 50 mM HEPES, (pH 7.4) 1 mM EDTA, and any remaining DNA sheared by passage of material through a 23 gauge needle and aliquots of enzyme were store at −80° C. prior to use.
(American Radiolabeled Chemicals; 1 mCi/ml) with FAAH (Life Sciences (1995), 56, 1999-2005 and Journal of Pharmacology and Experimented Therapeutics (1997), 283, 729-734), Analytical. Biochemistry (2003), 318:270-5. In addition, routine assays were performed monitoring hydrolysis of araehidonyl-7-amino-4-methylcoumarin amide (AAMCA) by following increase in fluorescence upon release of 7-amino 4-methyl coumarin (λEX=355 nm, (λEM=460 nm). Analytical. Biochemistry (2005). 343:143-51
as §2

SMILES | IC50 (human FAAH [1]) [nM] | IC50 (human FAAH [2]) [nM]
Fc1ccc(-c2nc(COc3ccc4[nH]ccc4c3)c(Sc3ccc(Cl)cn3)o2)cc1 [Example B2.10, 5-({5-[(5-chloropyridin-2-yl)sulfanyl]-2-(4-fluorophenyl)-1,3-oxazol-4-yl}methoxy)-1H-indole] | 298 | 56
CC(O)c1ccc(OCc2nc(-c3ccc(F)cc3)oc2Sc2ccc(Cl)cn2)cc1 (centres unmarked) [Example B2.7, 1-[4-({5-[(5-chloropyridin-2-yl)sulfanyl]-2-(4-fluorophenyl)-1,3-oxazol-4-yl}methoxy)phenyl]ethanol] | 201 | 12
CN(C)C(=O)c1ccc(OCc2nc(-c3ccc(F)cc3)oc2Sc2ccc(Cl)cn2)cc1 [Example B2.11.3, 4-({5-[(5-chloropyridin-2-yl)sulfanyl]-2-(4-fluorophenyl)-1,3-oxazol-4-yl}methoxy)-N,N-dimethylbenzamide] | 1450 | 149
CS(=O)(=O)N1CCC(NC(=O)c2nc(-c3ccc(F)cc3)oc2Sc2ccc(Cl)cn2)CC1 [Example A5.2, 5-[(5-chloropyridin-2-yl)sulfanyl]-2-(4-fluorophenyl)-N-[1-(methylsulfonyl)piperidin-4-yl]-1,3-oxazole-4-carboxamide] | 400 | 57
Fc1ccc(-c2nc(COC3CCOCC3)c(Sc3ccc(Cl)cn3)o2)cc1 [Example B2.15, 5-chloro-2-({2-(4-fluorophenyl)-4-[(tetrahydro-2H-pyran-4-yloxy)methyl]-1,3-oxazol-5-yl}sulfanyl)pyridine] | 343 | 88
Clc1ccc(Sc2oc(C3CC3)nc2COc2ccc3[nH]ncc3c2)nc1 [Example D4.2, 5-({5-[(5-chloropyridin-2-yl)sulfanyl]-2-cyclopropyl-1,3-oxazol-4-yl}methoxy)-1H-indazole] | 979 | 317
COC(=O)c1ccc(OCc2nc(-c3ccc(F)cc3)oc2Sc2ccc(Cl)cn2)cn1 [Example B2.5, methyl 5-({5-[(5-chloropyridin-2-yl)sulfanyl]-2-(4-fluorophenyl)-1,3-oxazol-4-yl}methoxy)pyridine-2-carboxylate] | 143 | 20
O[C@H]1CC[C@H](NCc2nc(C3CCOCC3)oc2Sc2ccc(Cl)cc2)CC1 [Example B5.13, trans-4-[({5-[(4-chlorophenyl)sulfanyl]-2-(tetrahydro-2H-pyran-4-yl)-1,3-oxazol-4-yl}methyl)amino] cyclohexanol] | 2830 | –

More lines, now with the values ahead:

IC50 (human FAAH [1]) [nM] | IC50 (human FAAH [2]) [nM] | SMILES
13 | 2 | COC(=O)c1ccc(OCc2nc(-c3ccc(F)cc3)oc2Sc2ccc(Cl)cn2)cc1 [Example B2.11, Methyl-4-({5-[(5-chloropyridin-2-yl)sulfanyl]-2-(4-fluorophenyl)-1,3-oxazol-4-yl}methoxy)benzoate]
24 | 6 | CCOC(=O)c1ccc(NCc2nc(-c3ccc(F)cc3)oc2Sc2ccc(Cl)cn2)nc1 [Example B5.7, ethyl 6-[({5-[(5-chloropyridin-2-yl)sulfanyl]-2-(4-fluorophenyl)-1,3-oxazol-4-yl}methyl)amino]pyridine-3-carboxylate]
97 | – | Clc1ccc(Sc2oc(C3CCOCC3)nc2COc2ccc3[nH]ncc3c2)cc1 [Example B2.17, 5-({5-[(4-chlorophenyl)sulfanyl]-2-(tetrahydro-2H-pyran-4-yl)-1,3-oxazol-4-yl}methoxy)-1H-indazole]
39 | 10 | COC(=O)c1ccc(NC(=O)c2nc(-c3ccc(F)cc3)oc2Sc2ccc(Cl)cn2)cc1 [Example A5.3, methyl 4-[({5-[(5-chloropyridin-2-yl)sulfanyl]-2-(4-fluorophenyl)-1,3-oxazol-4-yl}carbonyl)amino]benzoate]
139 | 45 | O[C@H]1CC[C@H](NCc2nc(-c3ccc(F)cc3)oc2Sc2ccc(Cl)cn2)CC1 [Example B5.9, trans-4-[({5-[(5-chloropyridin-2-yl)sulfanyl]-2-(4-fluorophenyl)-1,3-oxazol-4-yl}methyl)amino] cyclohexanol]
5 | 3 | CNC(=O)c1ccc(OCc2nc(-c3ccc(F)cc3)oc2Sc2ccc(Cl)cn2)cc1 [Example B2.11.4, 4-({5-[(5-chloropyridin-2-yl)sulfanyl]-2-(4-fluorophenyl)-1,3-oxazol-4-yl}methoxy)-N-methylbenzamide]
27 | – | COC(=O)[C@H]1CC[C@H](NCc2nc(C3CCOCC3)oc2Sc2ccc(Cl)cc2)CC1 [Example B5.14, methyl trans-4-[({5-[(4-chlorophenyl)sulfanyl]-2-(tetrahydro-2H-pyran-4-yl)-1,3-oxazol-4-yl}methyl)amino] cyclohexanecarboxylate]
20 | 3 | Fc1ccc(-c2nc(COc3ccc4[nH]ncc4c3)c(Sc3ccc(Cl)cn3)o2)cc1 [Example B2.1, 5-({5-[(5-chloropyridin-2-yl)sulfanyl]-2-(4-fluorophenyl)-1,3-oxazol-4-yl}methoxy)-1H-indazole]
38 | 22 | Fc1ccc(-c2nc(CNc3ccc4[nH]ncc4c3)c(Sc3ccc(Cl)cn3)o2)cc1 [Example B5.6, N-({5-[(5-chloropyridin-2-yl)sulfanyl]-2-(4-fluorophenyl)-1,3-oxazol-4-yl}methyl)-1H-indazol-5-amine]
50 | – | COC(=O)[C@H]1CC[C@@H](NCc2nc(-c3ccc(F)cc3)oc2Sc2ccc(Cl)cn2)CC1 [Example B5.11, methyl cis-4-[({5-[(5-chloropyridin-2-yl)sulfanyl]-2-(4-fluorophenyl)-1,3-oxazol-4-yl}methyl)amino] cyclohexanecarboxylate]
